Tests used:
SD rats = experiment: Subchronic toxicity test in SD rats: organ weights; assay type: in vivo, Sprague-Dawley (SD) rats; conditions: for Adrenal gland absolute weight / Brain relative weight: female rats; for Kidney relative weight / Testis absolute weight: male rats
Experimental: The rats that were judged suitable for the subchronic toxicity study were randomly divided into four groups (10 rats/sex/group). The rats received the test sample by gavage once daily for 28 days. HZ1006 was administered to the rats at doses of 120, 60, 20 and 0 (control) mg/kg, and the dosage volume was 5 mL/kg. Half of the 80 rats (half male and half female) were selected randomly according to body weight and dissected at d28. The remaining rats were dissected at […]. After euthanasia, the following organs or tissues were isolated from the dogs and rats: skin, abnormal lesions, spleen, mammary glands, jejunum, pancreas, ileum, duodenum, stomach, colon, cecum, lymph nodes, mesenteric salivary glands, liver, submandibular lymph nodes, thymus, sternum, lungs, heart, esophagus, trachea, tongue, thyroid with parathyroid gland, sciatic nerve, aorta, femurs, skeletal muscle, pituitary gland, brain, kidneys, eyes, urinary bladder, adrenal glands, uterus, ovaries, testes, epididymis and prostate. The weights of the animal organs, such as the liver, spleen, heart, thymus, brain, lungs, adrenal glands, kidneys, uterus, ovaries, epididymis and testes, were tested using an electronic balance. The organs or tissues were fixed using 10% neutral buffered formalin and were then gradient dehydrated, embedded, sectioned, and stained with routine hematoxylin-eosin prior to histopathological observations.

[1] = Toxicokinetics in Beagle dogs; assay type: in vivo; conditions: for accumulation coefficient R: after 28 days compared with d1; for Tmax / Cmax / half-life / AUC(0-inf): both sexes, Beagle, dog
Experimental: HZ1006 was administered orally to dogs (four/sex/group) at doses of 80, 40, 20, 5 and 0 (control) mg/kg/day, and the dosage volume was 2 mL/kg. The dogs received test doses with the exact amounts on a weekly basis based on current body weights. […] The other dogs in the above groups were dissected on the planned days. For the other groups, half of the dogs were anatomized on d28 and the remaining half on d42.
The dogs’ blood samples were obtained on the 1st day, the 14th day and the last day (d28) of dosage for plasma HZ1006 content analyses at 0 (1st day only), 1/6, 0.5, 1, 2, 4, 8, 12 and 24 h after dosing, and the blood samples of the rats were acquired on the 1st day and 28th day at the same time as those of the dogs, which were handled and analyzed according to the procedure reported by Zhang et al..

[2] = 20 mg/kg oral daily, d42 (recovery)
[3] = 60 mg/kg oral daily, d42 (recovery)
[4] = 120 mg/kg oral daily, d42 (recovery)
[5] = plasma, po, 5 mg/kg/day, 5 mg/kg/day oral, 14 days
[6] = plasma, po, 5 mg/kg/day, 5 mg/kg/day oral, 28 days
[7] = plasma, po, 5 mg/kg/day, 5 mg/kg/day oral, single
[8] = plasma, po, 20 mg/kg/day, 20 mg/kg/day oral, 14 days
[9] = plasma, po, 20 mg/kg/day, 20 mg/kg/day oral, 28 days
[10] = plasma, po, 20 mg/kg/day, 20 mg/kg/day oral, single
[11] = plasma, po, 40 mg/kg/day, 40 mg/kg/day oral, 14 days
[12] = plasma, po, 40 mg/kg/day, 40 mg/kg/day oral, 28 days
[13] = plasma, po, 40 mg/kg/day, 40 mg/kg/day oral, single
[14] = plasma, po, 80 mg/kg/day, 80 mg/kg/day oral, 14 days
[15] = plasma, po, 80 mg/kg/day, 80 mg/kg/day oral, 28 days
[16] = plasma, po, 80 mg/kg/day, 80 mg/kg/day oral, single

In the case of CCCCCCCNc1cc(/C=C/C(=O)NO)ccc1OCCN(CC)CC [HZ1006], the “Adrenal gland absolute weight” value (SD rats; 20 mg/kg oral daily, d28) is reported as 0.081 ± 0.005 g, the Brain relative weight (SD rats; 20 mg/kg oral daily, d28) is reported as 0.728 ± 0.047 g/100 g and the “Adrenal gland absolute weight” value (SD rats; [2]) is reported as 0.072 ± 0.008 g. For the same compound, the Brain relative weight (SD rats; [2]) was 0.768 ± 0.020 g/100 g, the “Adrenal gland absolute weight” value (SD rats; 60 mg/kg oral daily, d28) was 0.068 ± 0.003 g and the Brain relative weight (SD rats; 60 mg/kg oral daily, d28) was 0.799 ± 0.062 g/100 g. The “Adrenal gland absolute weight” value (SD rats; [3]) was 0.071 ± 0.012 g, the Brain relative weight (SD rats; [3]) was 0.768 ± 0.068 g/100 g and the “Adrenal gland absolute weight” value (SD rats; 120 mg/kg oral daily, d28) was 0.066 ± 0.008 g. For the same compound, the Brain relative weight (SD rats; 120 mg/kg oral daily, d28) was 0.834 ± 0.042 g/100 g, the “Adrenal gland absolute weight” value (SD rats; [4]) was 0.069 ± 0.011 g and the Brain relative weight (SD rats; [4]) was 0.745 ± 0.089 g/100 g. It also gave a Kidney relative weight (SD rats; 20 mg/kg oral daily, d28) of 0.707 ± 0.024 g/100 g, a Testis absolute weight (SD rats; 20 mg/kg oral daily, d28) of 2.707 ± 0.090 g and a Kidney relative weight (SD rats; [2]) of 0.693 ± 0.033 g/100 g. For the same compound, the Testis absolute weight (SD rats; [2]) was 2.798 ± 0.112 g, the Kidney relative weight (SD rats; 60 mg/kg oral daily, d28) was 0.705 ± 0.039 g/100 g and the Testis absolute weight (SD rats; 60 mg/kg oral daily, d28) was 2.624 ± 0.170 g. For the same compound, the Kidney relative weight (SD rats; [3]) was 0.687 ± 0.020 g/100 g, the Testis absolute weight (SD rats; [3]) was 2.787 ± 0.097 g and the Kidney relative weight (SD rats; 120 mg/kg oral daily, d28) was 0.673 ± 0.023 g/100 g. For the same compound, the Testis absolute weight (SD rats; 120 mg/kg oral daily, d28) was 2.666 ± 0.115 g, the Kidney relative weight (SD rats; [4]) was 0.624 ± 0.053 g/100 g and the Testis absolute weight (SD rats; [4]) was 2.723 ± 0.161 g. For the same compound, the “accumulation coefficient R” value ([1]; 5 mg/kg/day oral) was 1.3 ± 1.2, the “accumulation coefficient R” value ([1]; 80 mg/kg/day oral) was 1.2 ± 0.9 and the Tmax ([1]; in vivo, 20 mg/kg/day oral, 28 days) was 3.17 ± 1.33 h. The Cmax ([1]; in vivo, 40 mg/kg/day oral, single) was 456 ± 376 ng/mL, the half-life ([1]; in vivo, 80 mg/kg/day oral, 28 days) was 7.56 ± 3.27 h and the AUC(0-inf) [1, 5] was 199 ± 69.6 ng·h/mL. It also gave a Cmax [1, 5] of 30.1 ± 14.2 ng/mL, a Tmax [1, 5] of 4.2 ± 2.01 h and a half-life [1, 5] of 4.75 ± 1.23 h. The AUC(0-inf) [1, 6] was 616 ± 242 ng·h/mL, the Cmax [1, 6] was 65.7 ± 42 ng/mL and the Tmax [1, 6] was 4.33 ± 2.94 h. The half-life [1, 6] was 7.34 ± 1.02 h, the AUC(0-inf) [1, 7] was 193 ± 64.6 ng·h/mL and the Cmax [1, 7] was 35.6 ± 15.1 ng/mL. The Tmax [1, 7] was 3.67 ± 1.52 h, the half-life [1, 7] was 4.4 ± 0.61 h and the AUC(0-inf) [1, 8] was 620 ± 249 ng·h/mL. It also gave a Cmax [1, 8] of 68.1 ± 22.8 ng/mL, a Tmax [1, 8] of 4 ± 2.19 h and a half-life [1, 8] of 5.21 ± 0.53 h. The AUC(0-inf) [1, 9] was 389 ± 104 ng·h/mL, the Cmax [1, 9] was 55.2 ± 21.8 ng/mL and the half-life [1, 9] was 5.35 ± 0.73 h. The AUC(0-inf) [1, 10] was 1190 ± 320 ng·h/mL, the Cmax [1, 10] was 139 ± 73.4 ng/mL and the Tmax [1, 10] was 3.5 ± 2.51 h. For the same compound, the half-life [1, 10] was 5.54 ± 1.53 h, the AUC(0-inf) [1, 11] was 1020 ± 977 ng·h/mL and the Cmax [1, 11] was 199 ± 175 ng/mL. For the same compound, the Tmax [1, 11] was 1.9 ± 1.34 h, the half-life [1, 11] was 7.34 ± 3.82 h and the AUC(0-inf) [1, 12] was 928 ± 298 ng·h/mL. For the same compound, the Cmax [1, 12] was 162 ± 102 ng/mL, the Tmax [1, 12] was 2.2 ± 1.1 h and the half-life [1, 12] was 5.08 ± 1.04 h. The AUC(0-inf) [1, 13] was 2500 ± 1490 ng·h/mL, the Tmax [1, 13] was 2.7 ± 2.7 h and the half-life [1, 13] was 6.93 ± 3.03 h. For the same compound, the AUC(0-inf) [1, 14] was 1550 ± 758 ng·h/mL, the Cmax [1, 14] was 174 ± 123 ng/mL and the Tmax [1, 14] was 4.43 ± 3.53 h. For the same compound, the half-life [1, 14] was 7.23 ± 3.45 h, the AUC(0-inf) [1, 15] was 1820 ± 570 ng·h/mL and the Cmax [1, 15] was 180 ± 83.4 ng/mL. It also gave a Tmax [1, 15] of 4.6 ± 3.29 h, an AUC(0-inf) [1, 16] of 3870 ± 2630 ng·h/mL and a Cmax [1, 16] of 365 ± 257 ng/mL. It also gave a Tmax [1, 16] of 3.5 ± 2.51 h and a half-life [1, 16] of 6.74 ± 2.2 h.

— publication PMC5201331, “Subchronic Toxicities of HZ1006, a Hydroxamate-Based Histone Deacetylase Inhibitor, in Beagle Dogs and Sprague-Dawley Rats” (International Journal of Environmental Research and Public …, 2016)
